Reference: PubChem BioAssay (NCI)
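48-hour exposure; five concentrations; linearly interpolated endpoints. Here, GI50 denotes the concentration required for 50% inhibition of growth. TGI denotes the concentration required for complete inhibition of growth.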

Legend:
Assay in all cases: DTP human tumour cell line panel, 48 h
[1] = test system: ACHN renal
[2] = test system: IGROV1 ovarian
[3] = test system: NCI-H226 lung
[4] = test system: NCI-H23 lung
[5] = test system: NCI-H460 lung
[6] = test system: SN12C renal
[7] = test system: SNB-19 CNS
[8] = test system: U251 CNS
[9] = test system: UACC-62 melanoma
[10] = test system: DU-145 prostate

Q: Which TGI [1] does the source give for `CCOC(=O)C1(C(=O)OCC)CC=C(C)CC12C(=O)Nc1ccccc12` (stereo unspecified) here?
A: > 100 µM

Q: And the TGI [2]?
A: > 100 µM

Q: What about the TGI [3] of the same compound?
A: > 100 µM

Q: And the TGI [4]?
A: > 100 µM

Q: What about the TGI [5] of the same compound?
A: > 100 µM

Q: And the TGI [6]?
A: > 100 µM

Q: And the TGI [7]?
A: > 100 µM

Q: What about the TGI [8] of the same compound?
A: > 100 µM

Q: What about the TGI [9] of the same compound?
A: > 100 µM

Q: For `COc1ccc(S(=O)(=O)N/N=C(\C)CN2C(=O)c3ccccc3C2=O)cc1`, which TGI [1] is on record?
A: > 100 µM

Q: What about the TGI [2] of the same compound?
A: > 100 µM

Q: What about the TGI [3] of the same compound?
A: > 100 µM

Q: And the TGI [4]?
A: > 100 µM

Q: What about the TGI [5] of the same compound?
A: > 100 µM

Q: What about the TGI [6] of the same compound?
A: > 100 µM

Q: What about the TGI [7] of the same compound?
A: > 100 µM

Q: And the TGI [8]?
A: > 100 µM

Q: What about the TGI [9] of the same compound?
A: > 100 µM

Q: With `CS(=O)(=O)CS(=O)CS(=O)CS(=O)CC(NC(=O)CCC(N)C(=O)O)C(=O)O` (stereo unspecified) as the compound, how does the TGI [1] read?
A: > 100 µM

Q: What about the TGI [10] of the same compound?
A: > 100 µM

Q: And the TGI [2]?
A: > 100 µM

Q: And the TGI [4]?
A: > 100 µM

Q: And the TGI [5]?
A: > 100 µM

Q: And the TGI [6]?
A: > 100 µM

Q: And the TGI [7]?
A: > 100 µM

Q: And the TGI [8]?
A: > 100 µM

Q: And the TGI [9]?
A: > 100 µM

Q: How did the TGI [1] turn out when `CN(Cc1ccccc1)C1(N(C)Cc2ccccc2)CC1` was run?
A: > 100 µM

Q: What about the TGI [2] of the same compound?
A: > 100 µM

Q: What about the TGI [3] of the same compound?
A: > 100 µM

Q: And the TGI [4]?
A: > 100 µM

Q: And the TGI [5]?
A: > 100 µM

Q: What about the TGI [6] of the same compound?
A: > 100 µM

Q: What about the TGI [7] of the same compound?
A: > 100 µM

Q: And the TGI [8]?
A: > 100 µM

Q: And the TGI [9]?
A: > 100 µM

Q: Which results are given for `Nc1nc(Nc2ccc3c(c2)CCC(N2CCCC2)CC3)nn1-c1cc2c(nn1)-c1ccccc1CCC2` (stereo unspecified)?
A: GI50 [1]: 0.346 µM; TGI [1]: 1.59 µM; GI50 [10]: 1.04 µM; TGI [10]: 2.36 µM; GI50 [2]: 0.455 µM; TGI [2]: 1.81 µM; GI50 [4]: 1.71 µM; TGI [4]: 3.72 µM; GI50 [5]: 1.08 µM; TGI [5]: 2.63 µM; GI50 [6]: 0.378 µM; TGI [6]: 1.81 µM; GI50 [7]: 1.6 µM; TGI [7]: 3.4 µM; GI50 [8]: 1.09 µM; TGI [8]: 2.39 µM; GI50 [9]: 1.5 µM; TGI [9]: 3.07 µM

Q: With `CN(C)CCNC(=O)c1cccc2c1nc(-c1ccccn1)c1ccccc12` as the compound, how does the TGI [1] read?
A: 35.3 µM

Q: What about the TGI [2] of the same compound?
A: 66.6 µM

Q: And the TGI [4]?
A: 30 µM

Q: What about the TGI [5] of the same compound?
A: 23.2 µM

Q: What about the TGI [6] of the same compound?
A: > 100 µM

Q: What about the TGI [7] of the same compound?
A: > 100 µM

Q: And the TGI [8]?
A: 34.5 µM

Q: And the TGI [9]?
A: 31.4 µM

Q: Which TGI [1] does the source give for `Cc1nn(C)c(=S)n(C)c1=O` here?
A: 10.2 µM

Q: And the TGI [2]?
A: 53.2 µM

Q: And the TGI [3]?
A: > 100 µM

Q: What about the TGI [4] of the same compound?
A: 10.6 µM

Q: What about the TGI [5] of the same compound?
A: > 100 µM

Q: And the TGI [6]?
A: 43.4 µM

Q: And the TGI [7]?
A: 41 µM

Q: What about the TGI [8] of the same compound?
A: 30.1 µM

Q: What about the TGI [9] of the same compound?
A: > 100 µM

Q: How did the TGI [1] turn out when `CC(C)(C)C(=O)OCC(COC(=O)C(C)(C)C)[N+](=O)[O-]` was run?
A: > 100 µM

Q: And the TGI [2]?
A: > 100 µM

Q: And the TGI [3]?
A: > 100 µM

Q: What about the TGI [4] of the same compound?
A: > 100 µM

Q: And the TGI [5]?
A: > 100 µM

Q: And the TGI [6]?
A: > 100 µM

Q: And the TGI [7]?
A: > 100 µM

Q: What about the TGI [8] of the same compound?
A: > 100 µM

Q: What about the TGI [9] of the same compound?
A: > 100 µM

Q: `O=C1c2ccccc2C2(O)Oc3cccc(O)c3C12O` (stereo unspecified) was tested. Which TGI [1] did it give?
A: > 100 µM

Q: What about the TGI [2] of the same compound?
A: > 100 µM

Q: What about the TGI [3] of the same compound?
A: > 100 µM

Q: What about the TGI [4] of the same compound?
A: > 100 µM

Q: What about the TGI [5] of the same compound?
A: > 100 µM

Q: And the TGI [6]?
A: > 100 µM

Q: And the TGI [7]?
A: > 100 µM

Q: What about the TGI [8] of the same compound?
A: > 100 µM

Q: And the TGI [9]?
A: > 100 µM

Q: For `COc1ccc(/C=C/C(C(=O)O)C(=O)O)cc1`, which TGI [1] is on record?
A: > 100 µM

Q: What about the TGI [2] of the same compound?
A: > 100 µM

Q: And the TGI [3]?
A: > 100 µM

Q: What about the TGI [4] of the same compound?
A: > 100 µM

Q: What about the TGI [5] of the same compound?
A: > 100 µM

Q: And the TGI [6]?
A: > 100 µM

Q: And the TGI [7]?
A: > 100 µM

Q: What about the TGI [8] of the same compound?
A: > 100 µM

Q: And the TGI [9]?
A: > 100 µM

Q: How did the TGI [1] turn out when `CC1=N/C(=C\c2ccc([N+](=O)[O-])cc2)C(=O)O1` was run?
A: > 100 µM

Q: And the TGI [2]?
A: > 100 µM

Q: What about the TGI [4] of the same compound?
A: > 100 µM

Q: What about the TGI [5] of the same compound?
A: > 100 µM

Q: And the TGI [6]?
A: > 100 µM

Q: And the TGI [7]?
A: > 100 µM

Q: What about the TGI [8] of the same compound?
A: > 100 µM

Q: And the TGI [9]?
A: > 100 µM
